Source: US20240298601A1, “SESAME PLANTS RESISTANT TO ACETOLACTATE SYNTHASE-INHIBITING HERBICIDES, COMPOSITIONS AND METHODS FOR PRODUCING SAME” (Yissum Research Development Company of The Hebrew …, priority 2021, published 2024)

Legend:
[1] = system: SiRM plants (mutant SiALS Ala188Val); details: for ED50 SiRM: herbicide rate reducing plant growth (shoot DW) by 50%, 16 DAT, n=5, calculated from fitted curve, for Imazamox above the tested rates; for RI (resistance index): resistance/susceptible ratio of the ED50 (SiRM vs WT); for reduction in shoot DW, SiRM / reduction in shoot length, SiRM: under the recommended dose; for dose up to which SiRM plants were not affected: post-emergence dose-response; for response of SiRM plants in dose-response assay: increasing doses
[2] = system: wild type (S-416) sesame plants; experiment: Herbicides dose-response assay (post-emergence, pots), wild type; type: in vivo, Sesamum indicum; details: for ED50 WT: herbicide rate reducing plant growth (shoot DW) by 50%, 16 DAT, sprayed at two true leaves, n=5; for reduction in shoot DW, WT / reduction in shoot length, WT: under the recommended dose; for response of WT plants in dose-response assay: increasing doses
SiRM plants [3] = experiment: Physiological characterization under Imazamox, SiRM parental line; type: in vivo, Sesamum indicum; details: Imazamox 48 g a.i. h^−1
Protocol: (§1) A cross between SiRM (♂) and the WT (♀) was made to produce F1 seeds. […] The pots were placed in a growth chamber under long-day conditions (16/8 light/dark and 32/25° C.). […] Plants were characterized daily for canopy coverage (Canopeo software, Oklahoma State University, USA; Patrignani and Ochsner, 2015. Agronomy Journal, 107:2312-2320) and gas exchange (IRGA 6800; Li-Cor, Lincoln, Nebraska, USA), over the next 11 days. At the end of the experiment, 21 DAT, the aboveground material was harvested, oven-dried (80° C., 48 h), and weighed to obtain shoot DW.

WT plants (S-416) = experiment: Imazamox spraying for resistance validation, WT; type: in vivo, Sesamum indicum; details: Imazamox 48 g a.i. ha^−1; seven days after spraying
[4] = system: hybrid (F1) plants (SiRM x WT); experiment: Physiological characterization of F1 hybrid plants under Imazamox; type: in vivo, Sesamum indicum; details: Imazamox 48 g a.i. h^−1
Protocol: as §1

Amaranthus palmeri [5] = experiment: Imazamox post-emergence field experiment, weed control; type: in vivo; details: Imazamox 40 g a.i. h^−1, non-treated ~12 plants m^−1
Protocol: The experiment was conducted in the Experimental Farm of the Hebrew University of Jerusalem in Rehovot, Israel ([…]; 54 m above sea level). The soil at this location is brown-red, degrading, sandy soil (Rhodoxeralf), composed of 76% sand, 8% silt, and 16% clay. […] Each plot consisted of a 5-meter row, with a sowing density of 7-plants m^−1 (n=6). At the end of the season, the survival rate was analyzed (number of plants per plot) and the plants in the plot were harvested. Samples were threshed using a laboratory thresher (Wintersteiger AG LD 350, Austria) and after sifting, the seeds were weighed to obtain seed yield.
To test the efficiency of Imazamox for weed control, Amaranthus palmeri was used as a model. Seeds of A. palmeri were sown (20-seeds m-1) as competitor weeds alongside the two sesame lines described above. As a negative control, plots that were not treated were used. At the end of the experiment, the number of A. palmeri plants per plot was counted.

WT (S-416) plants = experiment: Physiological characterization under Imazamox, WT parental line; type: in vivo, Sesamum indicum; details: Imazamox 48 g a.i. h^−1
Protocol: as §1

WT (S-416) sesame = experiment: Imazamox post-emergence field experiment, WT sesame; type: in vivo, Sesamum indicum; details: Imazamox 40 g a.i. h^−1
mutant plants (SiRM) = experiment: Imazamox spraying for resistance validation, M3 mutant plants; details: Imazamox 48 g a.i. ha^−1; seven days after spraying
From the text: Genomic DNA was extracted using the CTAB protocol, with modification for sesame as described before (Teboul et al., 2020. Genes, 11, 1221). To test possible mutation(s) in the SiALS gene, a targeted sequencing was applied using four primer pairs covering the whole gene sequence (Table 1) according to the sequenced sesame genome (Zhongzhi No. 13; Wang et al., 2014. Genome Biology, 15:1-13). The gene was amplified, and PCR products were sequenced (HUJI genome center, Israel). Sequence alignment was performed using the Clustal Omega tool (Madeira et al., 2019. Nucleic Acids Research, 47:636-641).

SiRM plants [6] = experiment: Imazamox post-emergence field experiment, SiRM sesame; type: in vivo, Sesamum indicum
WT plants [7] = experiment: Imazapic pre-emergence pot experiment, WT; type: in vivo, Sesamum indicum
SiRM plants [8] = experiment: Roots development under increasing dosages of Imazapic; type: in vivo, Sesamum indicum; details: pre-emergence; 24, 48, 96 and 192 g a.i. ha^−1; sandy soil; 14 DAT
[9] = system: resistant plants of the invention (SiRM); experiment: 2021 field trial, Imazapic pre-emergence, sesame performance; type: in vivo, Sesamum indicum; details: pre-emergence Imazapic 48 g a.i. ha^−1
Protocol: (§2) An additional field experiment was conducted during the summer of 2021 at the Experimental Farm of the Hebrew University of Jerusalem, Rehovot, Israel. A split-plot random block design with six replicates was applied. Treatments included: weed-free plots (i.e., manual weeding), untreated control (i.e., herbicide-free treatment) and application of Imazapic (48 g a.i. ha^−1) pre-germination. The plot size was 3.6 m×0.8 m (10 cm between plants) with two rows per plot. To evaluate the efficacy of weed control, two weeds were sown on the sesame sowing lines (Amaranthus Palmeri, 500 seeds per plot, and Abutilon Theophrastus, 70 seeds per plot). Phenological characterization was conducted during the growing season for the flowering date, the number of brunches per plant and the height to the first capsule. At the end of the growing season, the number of weeds per plot was counted and weeds were harvested for dry weight measurements. Sesame plants were harvested 1 m from the middle of the plot, samples were threshed using a laboratory thresher (Wintersteiger AG LD 350, Austria), and after sifting, the seeds were weighed to obtain seed yield.

SiRM plants [10] = experiment: Field observation after Imazapic recommended dose, SiRM; type: in vivo, Sesamum indicum; details: Imazapic 48 g a.i. h^−1
Abutilon Theophrastus = experiment: 2021 field trial, Imazapic pre-emergence, weed control; type: in vivo; details: pre-emergence Imazapic 48 g a.i. ha^−1; field 2021
Protocol: as §2

Amaranthus palmeri [11] = experiment: as above; type: in vivo; details: pre-emergence Imazapic 48 g a.i. ha^−1; field 2021
Protocol: as §2

WT plants [12] = experiment: Field observation after Imazapic recommended dose, WT; type: in vivo, Sesamum indicum; details: Imazapic 48 g a.i. h^−1
SiRM plants [13] = details: pre-emergence

COc1ncc(F)c2nc(S(=O)(=O)Nc3c(F)cccc3F)nn12 [Florasulam, N-(2,6-difluorophenyl)-8-fluoro-5-methoxy-[1,2,4]triazolo[1,5-c]pyrimidine-2-sulfonamide]
ED50 SiRM [1]: 62 g a.i. ha^−1 | RI (resistance index) [1]: 2 | ED50 WT [2]: 31 g a.i. ha^−1

COc1cc(OC)nc(NC(=O)NS(=O)(=O)c2cc(NC=O)ccc2C(=O)N(C)C)n1 [Foramsulfuron, 2-[(4,6-dimethoxypyrimidin-2-yl)carbamoylsulfamoyl]-4-formamido-N,N-dimethylbenzamide]
ED50 SiRM [1]: 165 g a.i. ha^−1 | RI (resistance index) [1]: 3.95 | reduction in shoot DW, SiRM [1]: 8% | reduction in shoot length, SiRM [1]: 58% | ED50 WT [2]: 41 g a.i. ha^−1 | reduction in shoot DW, WT [2]: 25% | reduction in shoot length, WT [2]: 64%

COCc1cnc(C2=NC(C)(C(C)C)C(=O)N2)c(C(=O)O)c1 (stereo not shown) [Imazamox, 5-(methoxymethyl)-2-(4-methyl-5-oxo-4-propan-2-yl-1H-imidazol-2-yl) pyridine-3-carboxylic acid]
state of SiRM plants at the end of the experiment (SiRM plants [3]; 21 DAT): showed no effect of Imazamox treatment | recovery of assimilation, SiRM (SiRM plants [3]; after 48 h): recover completely and did not differ from the UTC plants | visual symptoms, WT (WT plants (S-416)): reduced growth and meristem damages | increment in shoot DW compared with untreated control plants ([1]; SiRM, low doses of 3, 6 and 12 g a.i. h^−1): 50% | ED50 SiRM [1]: 823 g a.i. ha^−1 | RI (resistance index) [1]: 45 | recovery of assimilation, hybrid plants [4]: after six days they fully recovered | reduction in plant height, hybrid plants ([4]; 21 DAT): ~40% | reduction in shoot DW, hybrid plants ([4]; 21 DAT): ~35% | nodes to the first flower, hybrid plants treated ([4]; UTC 5.6): 11.4 nodes | nodes length, hybrid plants treated ([4]; UTC 8.0): 2.4 cm | height of first flower bud, hybrid plants treated ([4]; UTC 44.6): 27.6 cm | number of A. palmeri plants (Amaranthus palmeri [5]): ~0 A. palmeri plants per meter plot | state of WT plants at the end of the experiment (WT (S-416) plants; 21 DAT): fully eradicated | assimilation rate of WT (WT (S-416) plants; after 48 h): < 20% | reduction in WT sesame stand (WT (S-416) sesame; field, P<0.0001): 75% | seed yield per plant, WT (WT (S-416) sesame; weed-free control 3.6, P=0.0015): 0.93 g per plant | seed yield per plot, WT (WT (S-416) sesame; weed-free control 19, P=0.0002): 1.6 g | visual symptoms, SiRM (mutant plants (SiRM)): did not display any visual symptoms | seed yield per plot, SiRM (SiRM plants [6]; Imazamox 40 g a.i. h^−1, control 16.7, P=0.02): 31.5 g | effect on the SiRM plots stand (SiRM plants [6]; Imazamox 40 g a.i. h^−1, field): no significant effect | seed yield per plant, SiRM (SiRM plants [6]; Imazamox 40 g a.i. h^−1, weed-free control 2.88, P=0.011): 6.05 g per plant | yield of SiRM compared to the corresponding weed-free UTC (SiRM plants [6]; field conditions, post-emergence): two-fold greater yield | ED50 WT [2]: 18 g a.i. ha^−1 | dose at which WT plants already exhibited visual symptoms and reduced shoot DW ([2]; post-emergence dose-response): 6 g a.i. ha^−1

Cc1cnc(C2=NC(C)(C(C)C)C(=O)N2)c(C(=O)O)c1 (stereo not shown) [Imazapic, 5-methyl-2-(4-methyl-5-oxo-4-propan-2-yl-1H-imidazol-2-yl) pyridine-3-carboxylic acid]
development of WT plants (WT plants [7]; 144 g a.i. h^−1): fully controlled and did not develop beyond the growth of the cotyledons | canopy coverage, WT (WT plants [7]; 144 g a.i. h^−1, 14 days after sowing, control 2.23, P=0.0008): 0.27 % of coverage | root length, WT (WT plants [7]; 144 g a.i. h^−1, control 82): 5 mm | root volume, SiRM (SiRM plants [8]): didn't show any significant differences in root volume | height to the first capsule [9]: reduced height to the first capsule | effect on growth of the resistant plants ([9]; compared with weed-free control): no deleterious effects | rate at which SiRM exhibited severe damage symptoms ([1]; 16X): 768 g a.i. h^−1 | ED50 SiRM [1]: 563 g a.i. ha^−1 | dose up to which SiRM plants were not affected [1]: ≤ 96 g a.i. h^−1 | RI (resistance index) [1]: 2.4 | state of SiRM plants in the field (SiRM plants [10]): only slightly affected and showed a five-day delay in shoot development and flowering time | control of Abutilon (Abutilon Theophrastus): didn't develop beyond the cotyledons | control of A. Palmeri (Amaranthus palmeri [11]): didn't emerge (full-control) | state of WT plants in the field (WT plants [12]): dead already 10 DAT | reduction in growth of WT ([2]; at 6 g a.i. h^−1, P=0.0055): 18% | ED50 WT [2]: 236 g a.i. ha^−1 | survival rate, SiRM (SiRM plants [13]; 48, 96 and 144 g a.i. h^−1, clay soil): 100% | development of SiRM plants (SiRM plants [13]; 144 g a.i. h^−1): developed normally without any visual differences compared to the untreated control | canopy coverage, SiRM (SiRM plants [13]; 144 g a.i. h^−1, 14 days after sowing): maintained similar values | root length, SiRM (SiRM plants [13]; 144 g a.i. h^−1, control 72, P=0.106): 85 mm

CCc1cnc(C2=NC(C)(C(C)C)C(=O)N2)c(C(=O)O)c1 (stereo not shown) [Imazethapyr, 5-ethyl-2-(4-methyl-5-oxo-4-propan-2-yl-1H-imidazol-2-yl) pyridine-3-carboxylic acid]
state of SiRM plants at the highest dosage ([1]; 160 g a.i. h^−1): viable and fully recovered | ED50 SiRM [1]: 161 g a.i. ha^−1 | dose up to which SiRM plants were not affected [1]: ≤ 80 g a.i. h^−1 | RI (resistance index) [1]: 48 | effect on WT plants at field recommended dosage ([2]; 20 g a.i. h^−1): deadly for the plants | ED50 WT [2]: 3.7 g a.i. ha^−1

CCCOc1nn(C(=O)NS(=O)(=O)c2ccccc2C(=O)OC)c(=O)n1C [Propoxycarbazone, methyl 2-[(4-methyl-5-oxo-3-propoxy-1,2,4-triazole-1-carbonyl)sulfamoyl]benzoate]
ED50 SiRM [1]: 96 g a.i. ha^−1 | response of SiRM plants in dose-response assay [1]: able to maintain growth (and develop flowering buds) up to the recommended dose | RI (resistance index) [1]: 8 | ED50 WT [2]: 12 g a.i. ha^−1 | response of WT plants in dose-response assay [2]: severe response of the WT plants already at a low dose of ⅛X

COc1cc(OC)nc(Sc2cccc(Cl)c2C(=O)O)n1 [Pyrithiobac sodium, sodium;2-chloro-6-(4,6-dimethoxypyrimidin-2-yl)sulfanylbenzoate]
ED50 SiRM [1]: 202 g a.i. ha^−1 | response of SiRM plants in dose-response assay [1]: able to survive up to the recommended dose | RI (resistance index) [1]: 20.5 | reduction in shoot length, SiRM [1]: 66% | ED50 WT [2]: 9.8 g a.i. ha^−1 | response of WT plants in dose-response assay [2]: lethal for both lines

COc1cc(OC)nc(NC(=O)NS(=O)(=O)c2ncccc2OCC(F)(F)F)n1 [Trifloxysulfuron, 1-(4,6-dimethoxypyrimidin-2-yl)-3-[3-(2,2,2-trifluoroethoxy)pyridin-2-yl]sulfonylurea]
ED50 SiRM [1]: 69 g a.i. ha^−1 | RI (resistance index) [1]: 2 | reduction in shoot DW, SiRM [1]: 18% | reduction in shoot length, SiRM [1]: 7% | ED50 WT [2]: 33 g a.i. ha^−1 | reduction in shoot DW, WT [2]: 63% | reduction in shoot length, WT [2]: 74%
